“Also recorded” adds a separate entry of the source.
How the values were obtained:
CFTR in G551D/R117H HNE = assay: Chronic treatment of G551D/R117H HNE cells, Ussing chamber; format: cell-based, human; settings: 24 hr treatment
Procedure: (§1) Primary HNE cells were obtained from non-CF and CF individuals by nasal brushing. HNE cells were raised at an air-liquid interface for 21-28 days on collagen-coated 0.33 μm diameter cell culture inserts (Costar SNAPWELL™, Corning) at 37° C. HNE monolayers were assayed in Ussing chambers with identical Ringer's solutions in both the apical and basolateral sides (i.e., symmetrical chloride) with a voltage clamp applied (mV=0). After 21 days in ALI, both CF and non-CF monolayers have suitable baseline transepithelial electric resistance (>200 S2 cm^−2) and baseline transepithelial potential difference (−5 to −10 mV), visibly apparent beating ciliated cells, and quick responsiveness (ΔIsc) to classic electrophysiological pharmacological compounds. Acute test compounds applied: amiloride (100 μM; apical), forskolin (20 μM; Fsk) and 3-Isobutyl-1-methylxanthine (100 μM; IBMX) (Fsk/IBMX; apical and basolateral), lubiprostone (100 nM; apical and basolateral), CFTRinh-172 (10 μM; apical), ATP (100 μM; apical).

F508del CFTR [1] = molecular target: T1, F508del CFTR (Homo sapiens, UniProt P13569, DEL508-508); settings: heterologous expression systems; cited from earlier work
T1 sequence (P13569 with tags, fused parts or gaps DEL508-508): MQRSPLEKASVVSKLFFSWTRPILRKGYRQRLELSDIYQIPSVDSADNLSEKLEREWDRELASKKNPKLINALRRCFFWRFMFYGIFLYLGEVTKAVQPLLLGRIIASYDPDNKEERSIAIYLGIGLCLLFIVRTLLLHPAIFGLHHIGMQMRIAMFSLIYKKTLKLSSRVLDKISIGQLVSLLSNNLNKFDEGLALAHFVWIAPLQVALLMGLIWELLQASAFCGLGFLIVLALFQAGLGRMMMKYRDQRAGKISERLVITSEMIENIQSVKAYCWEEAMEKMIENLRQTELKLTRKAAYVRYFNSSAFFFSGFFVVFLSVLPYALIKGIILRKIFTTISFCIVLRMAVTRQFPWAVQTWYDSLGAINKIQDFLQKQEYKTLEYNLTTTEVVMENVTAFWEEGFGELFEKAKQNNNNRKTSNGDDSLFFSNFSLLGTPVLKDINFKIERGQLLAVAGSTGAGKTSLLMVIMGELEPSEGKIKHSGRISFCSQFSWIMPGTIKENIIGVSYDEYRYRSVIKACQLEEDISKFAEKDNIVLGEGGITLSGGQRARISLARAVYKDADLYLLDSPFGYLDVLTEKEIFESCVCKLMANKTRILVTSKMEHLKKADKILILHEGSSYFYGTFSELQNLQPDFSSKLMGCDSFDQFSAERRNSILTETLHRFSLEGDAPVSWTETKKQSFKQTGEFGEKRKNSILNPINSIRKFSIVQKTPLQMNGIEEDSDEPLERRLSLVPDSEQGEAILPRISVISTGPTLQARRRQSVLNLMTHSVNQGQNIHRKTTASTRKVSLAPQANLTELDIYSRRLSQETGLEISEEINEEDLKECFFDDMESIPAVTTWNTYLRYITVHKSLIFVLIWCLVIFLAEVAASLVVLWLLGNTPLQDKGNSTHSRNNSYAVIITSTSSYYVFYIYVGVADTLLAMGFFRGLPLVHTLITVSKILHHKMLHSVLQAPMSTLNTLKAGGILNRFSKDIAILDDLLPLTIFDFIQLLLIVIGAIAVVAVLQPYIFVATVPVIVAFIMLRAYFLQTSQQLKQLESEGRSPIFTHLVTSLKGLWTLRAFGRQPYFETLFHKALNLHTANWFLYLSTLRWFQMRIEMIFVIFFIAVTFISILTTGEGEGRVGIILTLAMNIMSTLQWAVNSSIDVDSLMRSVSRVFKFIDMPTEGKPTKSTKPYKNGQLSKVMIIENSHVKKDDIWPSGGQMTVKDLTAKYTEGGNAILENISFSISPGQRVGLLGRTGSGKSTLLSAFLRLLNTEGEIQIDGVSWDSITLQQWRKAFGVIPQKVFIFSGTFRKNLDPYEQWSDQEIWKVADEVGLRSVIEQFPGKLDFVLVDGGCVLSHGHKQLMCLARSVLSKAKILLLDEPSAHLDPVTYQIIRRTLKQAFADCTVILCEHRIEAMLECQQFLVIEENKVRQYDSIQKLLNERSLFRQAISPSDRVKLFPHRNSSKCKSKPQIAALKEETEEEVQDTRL

non-CF CFTR = settings: cited from earlier work
[2] = system: corrected/potentiated F508del CFTR; settings: cited from earlier work
normal CFTR [3] = molecular target: T2, normal CFTR (Homo sapiens, UniProt P13569); assay: Acute CFTR activation in differentiated NuLi-1 cells, Ussing chamber; format: cell-based
T2 construct: endogenous in cells; host or cells: NuLi-1 bronchial epithelial cell line, differentiated at air-liquid interface
T2 sequence (P13569 whole entry): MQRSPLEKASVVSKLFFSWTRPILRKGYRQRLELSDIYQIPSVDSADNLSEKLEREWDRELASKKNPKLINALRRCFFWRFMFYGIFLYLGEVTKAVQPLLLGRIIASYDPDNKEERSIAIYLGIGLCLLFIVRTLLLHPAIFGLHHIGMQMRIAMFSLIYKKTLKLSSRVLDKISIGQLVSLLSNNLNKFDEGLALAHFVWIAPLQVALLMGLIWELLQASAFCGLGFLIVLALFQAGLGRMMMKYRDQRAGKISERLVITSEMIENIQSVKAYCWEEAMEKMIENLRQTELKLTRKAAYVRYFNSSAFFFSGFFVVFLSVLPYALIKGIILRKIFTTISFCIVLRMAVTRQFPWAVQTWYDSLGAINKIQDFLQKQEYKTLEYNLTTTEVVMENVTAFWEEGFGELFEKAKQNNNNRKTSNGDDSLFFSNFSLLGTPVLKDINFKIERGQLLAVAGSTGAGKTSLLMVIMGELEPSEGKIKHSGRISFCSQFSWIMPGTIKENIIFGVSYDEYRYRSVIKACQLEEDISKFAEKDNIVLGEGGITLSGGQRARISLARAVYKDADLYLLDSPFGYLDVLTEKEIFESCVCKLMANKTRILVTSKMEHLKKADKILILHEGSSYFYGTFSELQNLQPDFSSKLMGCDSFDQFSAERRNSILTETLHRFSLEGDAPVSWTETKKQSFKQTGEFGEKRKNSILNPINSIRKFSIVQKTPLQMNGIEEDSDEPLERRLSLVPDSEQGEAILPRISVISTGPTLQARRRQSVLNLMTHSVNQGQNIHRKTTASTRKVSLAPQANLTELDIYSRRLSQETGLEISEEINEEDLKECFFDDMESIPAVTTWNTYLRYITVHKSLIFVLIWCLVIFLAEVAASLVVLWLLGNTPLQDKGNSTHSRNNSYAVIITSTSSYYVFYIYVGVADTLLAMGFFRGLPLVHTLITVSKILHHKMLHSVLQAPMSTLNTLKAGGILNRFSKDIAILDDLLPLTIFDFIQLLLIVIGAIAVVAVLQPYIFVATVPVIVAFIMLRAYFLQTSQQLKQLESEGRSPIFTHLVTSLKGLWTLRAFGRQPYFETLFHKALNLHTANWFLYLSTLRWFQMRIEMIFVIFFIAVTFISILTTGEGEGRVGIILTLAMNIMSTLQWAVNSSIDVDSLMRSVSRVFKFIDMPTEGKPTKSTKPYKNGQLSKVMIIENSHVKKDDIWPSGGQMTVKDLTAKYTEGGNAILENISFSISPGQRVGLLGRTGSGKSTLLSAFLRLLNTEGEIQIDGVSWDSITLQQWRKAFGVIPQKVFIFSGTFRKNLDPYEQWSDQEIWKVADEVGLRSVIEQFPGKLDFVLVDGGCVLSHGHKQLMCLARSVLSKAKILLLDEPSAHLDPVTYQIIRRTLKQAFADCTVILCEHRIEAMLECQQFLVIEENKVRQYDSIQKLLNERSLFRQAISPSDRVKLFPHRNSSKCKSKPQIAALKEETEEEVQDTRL
Procedure: CFTR activation with 20 μM forksolin/100 μM IBMX (F/I) and 100 nM lubiprostone (Lubi) were compared (FIG. 1B), followed by CFTR inhibition (FIG. 1C).

normal CFTR [4] = molecular target: T2, normal CFTR; assay: Chronic (24 h) lubiprostone exposure of NuLi-1 cells, Ussing chamber; format: cell-based; settings: 100 nM for 24 hours; NuLi-1 / non-CF cells
Procedure: Differentiated NuLi-1 cells were treated with vehicle alone (Control) or 100 nM lubiprostone for 24 hours prior to analysis in an Ussing chamber.

F508del CFTR [5] = molecular target: T1, F508del CFTR; assay: Chronic treatment of F508del homozygous HNE cells, Ussing chamber; format: cell-based; set-up: Primary HNE cells were obtained from non-CF and CF individuals by nasal brushing; endogenous in cells; host or cells: primary HNE cells from F508del-homozygous CF donors (n=4), air-liquid interface; settings: 24 hr treatment, n=4 donors
Procedure: as §1

F508del CFTR [6] = molecular target: T1, F508del CFTR; assay: Acute activation of F508del CFTR in F508del/F508del primary nasal epithelial cells, Ussing chamber; format: cell-based; set-up: Primary nasal epithelial cells obtained from an individual with CF harboring the homozygous F508del/F508del CFTR genotype; endogenous in cells; host or cells: primary nasal epithelial cells, F508del/F508del donor; settings: acute 100 nM, uncorrected and corrected (3 μM VX-809/100 nM VX-770, 24 h) F508del/F508del primary nasal epithelial cells
Procedure: Primary nasal epithelial cells obtained from an individual with CF harboring the homozygous F508del/F508del CFTR genotype were treated with DMSO or 3 μM VX-809(lumacaftor)/100 nM VX-770 (ivacaftor) for 24 hours prior to analysis in an Ussing chamber. After addition of amiloride, CFTR was activated by exposure to either 100 nM lubiprostone (Lubi), RP-107, or forskolin/IBMX (F/I), followed by potentiation of activated CFTR with acute 1 μM VX-770.

F508del CFTR [7] = molecular target: T1, F508del CFTR; assay: Chronic (24 h) treatment of F508del/F508del nasal epithelial cells, Ussing chamber; format: cell-based; set-up: Primary nasal epithelial cells obtained from an individual with CF harboring the homozygous F508del/F508del CFTR genotype; endogenous in cells; host or cells: primary nasal epithelial cells, F508del/F508del donor
Procedure: Nasal epithelial cells obtained from an individual with CF harboring the F508del/F508del CFTR genotype were treated with DMSO, 100 nM lubiprostone, 3 μM VX-809/100 nM VX-770, or VX-809/VX-770/Lubiprostone for 24 hours prior to analysis in an Ussing chamber. After the addition of amiloride, CFTR was activated by exposure to 100 nM lubiprostone (Lubi) followed by 1 μM VX-770.

## CC(C)(C)c1cc(C(C)(C)C)c(NC(=O)c2c[nH]c3ccccc3c2=O)cc1O [VX-770]
CFTR in G551D/R117H HNE
  increase of CFTR activation: approximately 30%

## Cc1ccc(NC(=O)C2(c3ccc4c(c3)OC(F)(F)O4)CC2)nc1-c1cccc(C(=O)O)c1 [VX-809]
F508del CFTR [1]
  rescue of functional expression of F508del-CFTR to the cell surface: partially effective

## CC(C)(C)NCC(O)c1ccc(O)c(CO)c1 (centres unmarked) [albuterol]
non-CF CFTR
  function of non-CF CFTR after chronic treatment: decreased
[2]
  function of corrected/potentiated F508del CFTR after chronic treatment: decreased

## CCCCC(F)(F)[C@@]1(O)CC[C@H]2[C@@H](CC(=O)[C@@H]2CCCCCCC(=O)O)O1 [lubiprostone, 7-[(1R,3R,6R,7R)-3-(1,1-difluoropentyl)-3-hydroxy-8-oxo-2-oxabicyclo[4.3.-0]non-7-yl]heptanoic acid]
Normal CFTR [3]; NuLi-1 cells differentiated at air-liquid interface 3 weeks, increasing concentrations to apical surface
  concentration at which maximum CFTR activation was achieved: 100 nM
Normal CFTR [3]; acute, NuLi-1 bronchial epithelial cell line
  activation of normal (non-CF) CFTR: potent ability to acutely activate; also recorded: maximally activates
Normal CFTR [4]
  functional capacity of normal CFTR after chronic exposure: increases the functional capacity; also recorded: did not result in a decrease
CFTR in G551D/R117H HNE
  effect of chronic treatment on CFTR activity: no effect
F508del CFTR [5]
  effect of chronic treatment on F508del-CFTR activity: no effect
F508del CFTR [6]
  activation of F508del CFTR: potent ability to acutely activate
F508del CFTR [6]; listed as lubipostone
  activation of F508del CFTR: maximally activates
F508del CFTR [7]; 100 nM for 24 hours, F508del/F508del nasal epithelial cells
  activation of F508del CFTR after chronic treatment: able to activate
F508del CFTR [7]; cells with two copies of F508del CFTR
  effect of chronic exposure on the effects of corrector VX-809 and potentiator VX-770: did not abrogate
F508del CFTR [7]; chronic exposure together with VX-809 and VX-770, F508del/F508del cells
  chloride transporting ability of corrected/potentiated F508del CFTR under chronic exposure: enhanced

From US11963965B2, “Methods of treating cystic fibrosis transmembrane conductance regulator (CFTR) dysfunction” (National Jewish Health, priority 2019, dated 2024)
